Starred links: 1 amine or outer side, 2 acyl side, 3 side chain; linkers in the order of their positions; H or OH if unused. Non-standard residues stand in square brackets, D forms with d. Residues, ends and D or L forms follow the SMILES beside them. Groups on a side chain read outwards from the residue. *: point of attachment. X12 = CCCCCCCCCCCCCCCCCC(=O)N[C@@H](CCC(=O)N[C@@H](CCC(=O)N[C@@H](CCC(=O)N[C@@H](CCC(=O)NCCCOCCOCCOCCCNC(=O)CCC(=O)NCCCOCCOCCOCCCNC(=O)CCC(=O)NCCCOCCOCCOCCCNC(=O)CCC(=O)NCCCOCCOCCOCCCN*)C(=O)O)C(=O)O)C(=O)O)C(=O)O; X16 = CCCCCCCCCCCCCCCCCC(=O)N[C@@H](CCC(=O)N[C@@H](CCC(=O)N[C@@H](CCC(=O)NCCCOCCOCCOCCCNC(=O)CCC(=O)NCCCOCCOCCOCCCNC(=O)CCC(=O)NCCCOCCOCCOCCCNC(=O)CCC(=O)NCCCOCCOCCOCCCN*)C(=O)O)C(=O)O)C(=O)O; X13 = CCCCCCCCCCCCCCCC(=O)N[C@@H](CCC(=O)N[C@@H](CCC(=O)N[C@@H](CCC(=O)N[C@@H](CCC(=O)NCCCOCCOCCOCCCNC(=O)CCC(=O)NCCCOCCOCCOCCCNC(=O)CCC(=O)NCCCOCCOCCOCCCN*)C(=O)O)C(=O)O)C(=O)O)C(=O)O; X3 = CCCCCCCCCCCCCCCCCC(=O)N[C@@H](CCC(=O)N[C@@H](CCC(=O)N[C@@H](CCC(=O)NCCCOCCOCCOCCCNC(=O)CCC(=O)NCCCOCCOCCOCCCNC(=O)CCC(=O)NCCCOCCOCCOCCCN*)C(=O)O)C(=O)O)C(=O)O; X1 = CCCCCCCCCCCCCCCC(=O)N[C@@H](CCC(=O)N[C@@H](CCC(=O)N[C@@H](CCC(=O)NCCCOCCOCCOCCCNC(=O)CCC(=O)NCCCOCCOCCOCCCNC(=O)CCC(=O)NCCCOCCOCCOCCCN*)C(=O)O)C(=O)O)C(=O)O; X4 = CCCCCCCCCCCCCCCCCC(=O)N[C@@H](CCC(=O)N[C@@H](CCC(=O)N[C@@H](CCC(=O)NCCCOCCOCCOCCCNC(=O)CCC(=O)NCCCOCCOCCOCCCN*)C(=O)O)C(=O)O)C(=O)O; Suc = O=C(CCC(=O)[*:2])[*:1]; hLys = NCCCCC[C@H](N)C(=O)O; Aib = CC(C)(N)C(=O)O
Target: T1, RXFP1 (Homo sapiens, UniProt Q9HBX9)
T1 construct: OVCAR5 cells expressing endogenous RXFP1; endogenous in cells; host or cells: OVCAR5
T1 sequence (Q9HBX9 1-757): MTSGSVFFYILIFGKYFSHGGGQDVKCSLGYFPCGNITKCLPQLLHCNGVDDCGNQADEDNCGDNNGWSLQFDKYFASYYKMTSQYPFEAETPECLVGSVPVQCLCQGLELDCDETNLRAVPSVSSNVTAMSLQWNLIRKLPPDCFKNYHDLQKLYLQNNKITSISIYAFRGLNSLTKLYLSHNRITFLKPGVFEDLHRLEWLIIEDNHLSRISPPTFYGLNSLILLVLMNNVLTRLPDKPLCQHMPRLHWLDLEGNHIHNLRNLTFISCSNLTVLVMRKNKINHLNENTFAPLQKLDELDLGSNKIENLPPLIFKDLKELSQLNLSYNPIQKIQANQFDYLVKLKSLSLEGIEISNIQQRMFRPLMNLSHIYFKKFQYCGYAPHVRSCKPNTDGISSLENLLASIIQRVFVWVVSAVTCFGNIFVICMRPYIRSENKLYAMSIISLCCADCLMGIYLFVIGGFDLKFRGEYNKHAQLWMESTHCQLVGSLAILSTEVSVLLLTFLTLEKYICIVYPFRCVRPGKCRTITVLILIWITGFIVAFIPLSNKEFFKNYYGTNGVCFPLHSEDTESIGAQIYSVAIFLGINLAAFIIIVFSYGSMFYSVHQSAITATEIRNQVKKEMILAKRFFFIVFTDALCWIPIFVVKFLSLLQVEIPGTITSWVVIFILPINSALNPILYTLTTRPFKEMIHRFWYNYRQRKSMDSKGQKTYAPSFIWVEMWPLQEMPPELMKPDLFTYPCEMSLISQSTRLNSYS
Assay: OVCAR5 cAMP assay (HTRF)
Type: cell-based
Settings: for EC50: OVCAR 5 cells expressing endogenous RXFP1, cAMP readout; for Emax: OVCAR 5 cells, maximal cAMP relative to H2-relaxin
Summary of the method: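 Endogenous RXFP1 in OVCAR5 cells, pretreated 40 min at 37° C with 1 mM IBMX, then exposed to increasing peptide concentrations in serum-free medium for 30 min at 37° C. cAMP read by HTRF; EC50 by variable-slope sigmoidal fit, Emax as % of H2-relaxin maximal cAMP in same run.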

Row | Compound | EC50 [nM] | Emax [%]
1 | CCCCCCCCCCCCCCCC(=O)N[C@@H](CCC(=O)N[C@@H](CCC(=O)N[C@@H](CCC(=O)NCCCOCCOCCOCCCNC(=O)CCC(=O)NCCCOCCOCCOCCCNC(=O)CCC(=O)NCCCOCCOCCOCCCNC(=O)CCC(=O)NCCCC[C@H](NC(=O)CNC(=O)[C@H](CCC(=O)O)NC(=O)C(C)(C)NC(=O)C(C)(C)NC(=O)[C@@H](NC(=O)[C@H](CCCCNC(C)=O)NC(=O)[C@H](C)NC(=O)[C@H](CCCNC(=N)N)NC(=O)[C@@H](NC(=O)[C@H](CCCCN)NC(=O)[C@H](CCC(=O)O)NC(=O)[C@H](CCCNC(=N)N)NC(=O)CNC(=O)[C@H](CCC(=O)O)NC(=O)[C@H](CC(C)C)NC(C)=O)C(C)C)[C@@H](C)CC)C(=O)N[C@@H](CO)C(=O)N[C@H](C(=O)N[C@@H](Cc1c[nH]c2ccccc12)C(=O)N[C@@H](CO)C(=O)N[C@@H](CCCCCN)C(=O)N[C@@H](CCCNC(=N)N)C(=O)N[C@@H](C)C(=O)N[C@@H](CCCCNC(C)=O)C(N)=O)[C@@H](C)O)C(=O)O)C(=O)O)C(=O)O [compound 57] (Ac-LEGREKVRAK(Ac)I[Aib][Aib]EGK([Suc-X1])STWS[hLys]RAK(Ac)-NH2) | 0.44 | 98
2 | CCCCCCCCCCCCCCCCCC(=O)N[C@@H](CCC(=O)N[C@@H](CCC(=O)N[C@@H](CCC(=O)N[C@@H](CCC(=O)NCCCOCCOCCOCCCNC(=O)CCC(=O)NCCCOCCOCCOCCCNC(=O)CCC(=O)NCCCOCCOCCOCCCNC(=O)CCC(=O)NCCCOCCOCCOCCCNC(=O)CCC(=O)NCCCC[C@H](NC(=O)CNC(=O)[C@H](CCC(=O)O)NC(=O)C(C)(C)NC(=O)C(C)(C)NC(=O)[C@@H](NC(=O)[C@H](CCCCNC(C)=O)NC(=O)[C@H](C)NC(=O)[C@H](CCCNC(=N)N)NC(=O)[C@@H](NC(=O)[C@H](CCCCN)NC(=O)[C@H](CCC(=O)O)NC(=O)[C@H](CCCNC(=N)N)NC(=O)CNC(=O)[C@H](CCC(=O)O)NC(=O)[C@H](CC(C)C)NC(C)=O)C(C)C)[C@@H](C)CC)C(=O)N[C@@H](CO)C(=O)N[C@H](C(=O)N[C@@H](Cc1c[nH]c2ccccc12)C(=O)N[C@@H](CO)C(=O)NC(C)(C)C(=O)N[C@@H](CCCNC(=N)N)C(=O)N[C@@H](CCCCN)C(=O)N[C@@H](CCCCNC(C)=O)C(N)=O)[C@@H](C)O)C(=O)O)C(=O)O)C(=O)O)C(=O)O [compound 59] (Ac-LEGREKVRAK(Ac)I[Aib][Aib]EGK([Suc-X12])STWS[Aib]RKK(Ac)-NH2) | – | 99
3 | CCCCCCCCCCCCCCCC(=O)N[C@@H](CCC(=O)N[C@@H](CCC(=O)N[C@@H](CCC(=O)N[C@@H](CCC(=O)NCCCOCCOCCOCCCNC(=O)CCC(=O)NCCCOCCOCCOCCCNC(=O)CCC(=O)NCCCOCCOCCOCCCNC(=O)CCC(=O)NCCCC[C@H](NC(=O)CNC(=O)[C@H](CCC(=O)O)NC(=O)C(C)(C)NC(=O)C(C)(C)NC(=O)[C@@H](NC(=O)[C@H](CCCCNC(C)=O)NC(=O)[C@H](C)NC(=O)[C@H](CCCNC(=N)N)NC(=O)[C@@H](NC(=O)[C@H](CCCCN)NC(=O)[C@H](CCC(=O)O)NC(=O)[C@H](CCCNC(=N)N)NC(=O)CNC(=O)[C@H](CCC(=O)O)NC(=O)[C@H](CC(C)C)NC(C)=O)C(C)C)[C@@H](C)CC)C(=O)N[C@@H](CO)C(=O)N[C@H](C(=O)N[C@@H](Cc1c[nH]c2ccccc12)C(=O)N[C@@H](CO)C(=O)NC(C)(C)C(=O)N[C@@H](CCCNC(=N)N)C(=O)N[C@@H](CCCCN)C(=O)N[C@@H](CCCCNC(C)=O)C(N)=O)[C@@H](C)O)C(=O)O)C(=O)O)C(=O)O)C(=O)O [compound 62] (Ac-LEGREKVRAK(Ac)I[Aib][Aib]EGK([Suc-X13])STWS[Aib]RKK(Ac)-NH2) | 0.6 | 98

Results, then the compound that gave them:

Row | EC50 [nM] | Emax [%] | Compound
4 | – | 98 | CCCCCCCCCCCCCCCCCC(=O)N[C@@H](CCC(=O)N[C@@H](CCC(=O)N[C@@H](CCC(=O)NCCCOCCOCCOCCCNC(=O)CCC(=O)NCCCOCCOCCOCCCNC(=O)CCC(=O)NCCCOCCOCCOCCCNC(=O)CCC(=O)NCCCOCCOCCOCCCNC(=O)CCC(=O)NCCCC[C@H](NC(=O)CNC(=O)[C@H](CCC(=O)O)NC(=O)C(C)(C)NC(=O)C(C)(C)NC(=O)[C@@H](NC(=O)[C@H](CCCCNC(C)=O)NC(=O)[C@H](C)NC(=O)[C@H](CCCNC(=N)N)NC(=O)[C@@H](NC(=O)[C@H](CCCCN)NC(=O)[C@H](CCC(=O)O)NC(=O)[C@H](CCCNC(=N)N)NC(=O)CNC(=O)[C@H](CCC(=O)O)NC(=O)[C@H](CC(C)C)NC(C)=O)C(C)C)[C@@H](C)CC)C(=O)N[C@@H](CO)C(=O)N[C@H](C(=O)N[C@@H](Cc1c[nH]c2ccccc12)C(=O)N[C@@H](CO)C(=O)NC(C)(C)C(=O)N[C@@H](CCCNC(=N)N)C(=O)N[C@@H](CCCCN)C(=O)N[C@@H](CCCCNC(C)=O)C(N)=O)[C@@H](C)O)C(=O)O)C(=O)O)C(=O)O [compound 58] (Ac-LEGREKVRAK(Ac)I[Aib][Aib]EGK([Suc-X16])STWS[Aib]RKK(Ac)-NH2)
5 | 0.15 | 95 | CCCCCCCCCCCCCCCCCC(=O)N[C@@H](CCC(=O)N[C@@H](CCC(=O)N[C@@H](CCC(=O)NCCCOCCOCCOCCCNC(=O)CCC(=O)NCCCOCCOCCOCCCNC(=O)CCC(=O)NCCCC[C@H](NC(=O)CNC(=O)[C@H](CCC(=O)O)NC(=O)C(C)(C)NC(=O)C(C)(C)NC(=O)[C@@H](NC(=O)[C@H](CCCCNC(C)=O)NC(=O)[C@H](C)NC(=O)[C@H](CCCNC(=N)N)NC(=O)[C@@H](NC(=O)[C@H](CCCCN)NC(=O)[C@H](CCC(=O)O)NC(=O)[C@H](CCCNC(=N)N)NC(=O)CNC(=O)[C@H](CCC(=O)O)NC(=O)[C@H](CC(C)C)NC(C)=O)C(C)C)[C@@H](C)CC)C(=O)N[C@@H](CO)C(=O)N[C@H](C(=O)N[C@@H](Cc1ccccc1)C(=O)N[C@@H](CO)C(=O)NC(C)(C)C(=O)N[C@@H](CCCNC(=N)N)C(=O)N[C@@H](CCCCN)C(=O)N[C@@H](CCCCNC(C)=O)C(N)=O)[C@@H](C)O)C(=O)O)C(=O)O)C(=O)O [compound 60] (Ac-LEGREKVRAK(Ac)I[Aib][Aib]EGK([Suc-X4])STFS[Aib]RKK(Ac)-NH2)
6 | 0.1 | 97 | CCCCCCCCCCCCCCCCCC(=O)N[C@@H](CCC(=O)N[C@@H](CCC(=O)N[C@@H](CCC(=O)NCCCOCCOCCOCCCNC(=O)CCC(=O)NCCCOCCOCCOCCCNC(=O)CCC(=O)NCCCOCCOCCOCCCNC(=O)CCC(=O)NCCCC[C@H](NC(=O)CNC(=O)[C@H](CCC(=O)O)NC(=O)C(C)(C)NC(=O)C(C)(C)NC(=O)[C@@H](NC(=O)[C@H](CCCCNC(C)=O)NC(=O)[C@H](C)NC(=O)[C@H](CCCNC(=N)N)NC(=O)[C@@H](NC(=O)[C@H](CCCCN)NC(=O)[C@H](CCC(=O)O)NC(=O)[C@H](CCCNC(=N)N)NC(=O)CNC(=O)[C@H](CCC(=O)O)NC(=O)[C@H](CC(C)C)NC(C)=O)C(C)C)[C@@H](C)CC)C(=O)N[C@@H](CO)C(=O)N[C@H](C(=O)N[C@@H](Cc1ccccc1)C(=O)N[C@@H](CO)C(=O)NC(C)(C)C(=O)N[C@@H](CCCNC(=N)N)C(=O)N[C@@H](CCCCN)C(=O)N[C@@H](CCCCNC(C)=O)C(N)=O)[C@@H](C)O)C(=O)O)C(=O)O)C(=O)O [compound 61] (Ac-LEGREKVRAK(Ac)I[Aib][Aib]EGK([Suc-X3])STFS[Aib]RKK(Ac)-NH2)
